Measurements reported in patent US20080226565A1, “Anticariogenic Proteins & Peptides & Saccharides” (priority 2004, published 2008).

Assays:
Solubility in water = format: physicochemical
[1] = test system: anaerobes isolated from the oral cavity; assay: Susceptibility (MIC), agar dilution, anaerobes from the oral cavity; format: cell-based, anaerobic bacteria; settings: explored range 0.2 to 3.5 mg/ml
Experimental: (§1) The investigations included more than hundred strains isolated from the oral cavity: : anaerobes, microaerophilic bacteria, aerobes, Streptococcus spp. and yeast like fungi. The microorganisms were isolated from saliva, mucosal membrane, gingival pockets and caries decay. The susceptibility (MIC) of bacteria and yeastlike fungi were determined by means of plate dilution technique in agar.
(§2) The investigated samples were dissolved in sterile distilled water (immediately before the experiment) to obtain the following concentrations: 3.5, 1.7, 0.8, 0.4 and 0.2 mg/ml and were added into appropriate agar. The plates were inoculated using a Steers multipoint inoculator. Inoculum contained 10^6 CFU/spot. In each experimental series, the growth of strains on the culture medium without the compounds investigated was checked. The concentration at which no macroscopic growth of the microbes was observed on the medium was regarded as the lowest concentration, inhibiting the growth of microbes (MIC). The examinations of the susceptibility of microbes to the peptides were carried out twice.
(§3) Anaerobes. The susceptibility of bacteria was determined by means of the agar dilution methods with Brucella agar supplemented with 5% defibrinated sheep's blood, menadione and hemin. Sample solutions with concentrations from of 3.5-0.2 mg/ml were added into agar. The agar plate without investigated samples was included as a bacterial growth control. The inoculum of 10^6 CFU/ml was applied to the agar plates with Steers replicator. Incubation was performed for 48 hrs at 37° C. (310° K) in anaerobic jars containing a mixture of 10% CO2, 10% H2 and 80% N2, in the presence of palladium catalyst and indicator of anaerobiosis. Microaerophilic bacteria. The susceptibility of bacteria was determined by means of the agar dilution methods with Brucella agar supplemented with 5% sheep's blood. Samples solutions with concentrations from of 3.5- 0.2 mg/ml were added into agar. The agar plate without investigated samples was included as a bacterial growth control. The inoculum of 10^6 CFU/ml was applied to the agar plates with Steers replicator. The incubation was performed at 37° C. in anaerobic jars with Campy Pak (bio Merieux) for 48 hours. Streptococcus spp. The susceptibility of bacteria was determined by means of the agar dilution methods with Mueller-Hinton agar supplemented with 5% sheep's blood. Samples solutions with concentrations from of 3.5- 0.2 mg/ml were added into agar. The agar plate without investigated samples was included as a bacterial growth control. The inoculum of 10^6 CFU/ml was applied to the agar plates with Steers replicator. Incubation was performed for 24 hrs at 37° C. (310° K) in anaerobic jars containing a mixture of 10% CO2 and 90% N2. Aerobes. The susceptibility to investigated samples was determined by means of the plate dilution technique in Mueller-Hinton agar. Samples solutions with concentrations from of 3.5- 0.2 mg/ml were added into agar. The agar plate without investigated samples was included as a bacterial growth control. The inoculum of 10^6 CFU/ml was applied to the agar plates with Steers replicator. Plates were incubated for 24 hrs in 37° C. under aerobic conditions. Yeast like fungi. The susceptibility of fungi to investigated samples was determined by means of the plate dilution technique in Sabouraud's agar. Samples solutions with concentrations from of 3.5- 0.2 mg/ml were added into agar. […]

[2] = test system: aerobes isolated from the oral cavity; assay: Susceptibility (MIC), agar dilution, aerobes from the oral cavity; format: cell-based, aerobic bacteria; settings: explored range 0.2 to 3.5 mg/ml
Experimental: as §1, §2
as §3, with “control. […]” for “control. The inoculum of 10^6 CFU/ml was applied to the agar plates with Steers replicator. Incubation was performed for 24 hrs at 37° C. (310° K) in anaerobic jars containing a mixture of 10% CO2 and 90% N2. Aerobes.”, “agar. […]” for “agar. Samples solutions with concentrations from of 3.5- 0.2 mg/ml were added into agar. The agar plate without investigated samples was included as a bacterial growth control. The inoculum of 10^6 CFU/ml was applied to the agar plates with Steers replicator. Plates were incubated for 24 hrs in 37° C. under aerobic conditions. Yeast like fungi.”, “agar.” for “agar. Samples solutions with concentrations from of 3.5- 0.2 mg/ml were added into agar.”

3-hydroxyphthalated e-polylysine [Product 27]
pH at which soluble in water (Solubility in water): above 9
activity against anaerobes [1]: less effective
activity against aerobes [2]: not active
